Values of other authors, collected in patent publication US20250313559A1 (Bayer Aktiengesellschaft, priority 2024, published 2025).
“Also recorded” adds a separate entry of the source.

Assays:
[1] = test system: patients with HF and LVEF 35%; details: EMPHASIS-HF; HFrEF; cited from earlier work
[2] = test system: patients with HF and LVEF 45%; details: TOPCAT; HFmrEF/HFpEF; cited from earlier work
[3] = test system: patients with HF and left ventricular ejection fraction (LVEF) 35%; details: RALES; HFrEF; cited from earlier work
patients with HFpEF = details: TOPCAT, global trial; cited from earlier work

COC(=O)[C@@H]1CC2=CC(=O)CC[C@]2(C)[C@@]23O[C@@H]2C[C@@]2(C)[C@@H](CC[C@@]24CCC(=O)O4)[C@H]13 [eplerenone]
Risk of death and hospitalization [1]: decrease the risk of death and hospitalization

CC(=O)S[C@@H]1CC2=CC(=O)CC[C@]2(C)[C@H]2CC[C@@]3(C)[C@@H](CC[C@@]34CCC(=O)O4)[C@H]12 [spironolactone]
Primary endpoint (first heart failure hospitalization or cardiovascular death) [2]: did not reduce the primary endpoint; also recorded: did not improve the primary outcome | Risk of death and hospitalization [3]: decrease the risk of death and hospitalization | primary composite endpoint (patients with HFpEF): did not reduce the primary endpoint; also recorded: did not demonstrate benefit
